Data published in PubChem BioAssay (NCI).
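Compound exposure: 48 hours, 5 concentrations, 96-well plates. The concentration for 50% growth inhibition is given as GI50. TGI is the concentration that stops growth completely.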

How the values were obtained:
Assay in all cases: NCI anticancer screen, dose series, 48 h; in the data active = GI50 below about 0.43 µM; inactive = the rest
[1] = tested on: SK-OV-3 ovarian
[2] = tested on: NCI-H522 lung
[3] = tested on: LOX IMVI melanoma
[4] = tested on: OVCAR-4 ovarian
[5] = tested on: CAKI-1 renal
[6] = tested on: SK-MEL-28 melanoma
[7] = tested on: KM12 colon
[8] = tested on: HOP-62 NSCLC
[9] = tested on: M14 melanoma
[10] = tested on: BT-549 breast
[11] = tested on: EKVX NSCLC
[12] = tested on: COLO 205 colon
[13] = tested on: T-47D breast
[14] = tested on: MDA-MB-435
[15] = tested on: A498 renal
[16] = tested on: SN12C renal
[17] = tested on: 786-0 renal
[18] = tested on: OVCAR-8 ovarian
[19] = tested on: CCRF-CEM leukemia
[20] = tested on: HCT-15 colon
[21] = tested on: OVCAR-3 ovarian
[22] = tested on: NCI-H226 lung
[23] = tested on: NCI/ADR-RES ovarian
[24] = tested on: MALME-3M melanoma
[25] = tested on: HCT-116 colon
[26] = tested on: SK-MEL-5 melanoma
[27] = tested on: HT29 colon
[28] = tested on: UACC-62 melanoma
[29] = tested on: HS 578T breast
[30] = tested on: SW-620 colon
[31] = tested on: SF-295 CNS
[32] = tested on: SNB-75 CNS
[33] = tested on: PC-3 prostate
[34] = tested on: RXF 393 renal
[35] = tested on: HOP-92 NSCLC
[36] = tested on: A549 NSCLC
[37] = tested on: DU-145 prostate
[38] = tested on: SR leukemia
[39] = tested on: MCF7 breast
[40] = tested on: NCI-H23 lung
[41] = tested on: SNB-19 CNS
[42] = tested on: TK-10 renal
[43] = tested on: NCI-H460 lung
[44] = tested on: MOLT-4 leukemia
[45] = tested on: UACC-257 melanoma
[46] = tested on: ACHN renal
[47] = tested on: SF-539 CNS
[48] = tested on: HCC-2998 colon
[49] = tested on: OVCAR-5 ovarian
[50] = tested on: UO-31 renal
[51] = tested on: MDA-MB-231 breast
[52] = tested on: U251 CNS
[53] = tested on: HL-60(TB) leukemia
[54] = tested on: K-562 leukemia
[55] = tested on: RPMI-8226 leukemia
[56] = tested on: SF-268 CNS

Oc1ccc(Oc2cnc3cc(Cl)ccc3n2)cc1
97.3 µM: TGI [14]
61.6 µM: TGI [48]
53.1 µM: TGI [43]
> 100 µM: TGI [1] | TGI [2] | TGI [3] | TGI [4] | TGI [6] | TGI [7] | TGI [8] | TGI [9] | TGI [10] | TGI [12] | TGI [13] | TGI [15] | TGI [16] | TGI [17] | TGI [18] | TGI [20] | TGI [22] | TGI [23] | TGI [24] | TGI [25] | TGI [26] | TGI [27] | TGI [28] | TGI [29] | TGI [30] | TGI [32] | TGI [33] | TGI [34] | TGI [35] | TGI [36] | TGI [37] | TGI [39] | TGI [40] | TGI [41] | TGI [42] | TGI [44] | TGI [45] | TGI [46] | TGI [47] | TGI [49] | TGI [51] | TGI [52] | TGI [53] | TGI [54] | TGI [55] | TGI [56]
94 µM: TGI [50]
38.4 µM: TGI [21]
68.4 µM: TGI [38]
74.4 µM: TGI [11]
68.2 µM: TGI [5]
79.9 µM: TGI [19]
74.5 µM: TGI [31]
inactive: GI50 [1] > 100 µM | GI50 [2] 19.1 µM | GI50 [3] 34.9 µM | GI50 [4] 28.2 µM | GI50 [5] 21.8 µM | GI50 [6] 76 µM | GI50 [7] 13.4 µM | GI50 [8] > 100 µM | GI50 [9] 46.5 µM | GI50 [10] 20.9 µM | GI50 [11] 13.2 µM | GI50 [12] 92.4 µM | GI50 [13] 32.8 µM | GI50 [14] 23.8 µM | GI50 [15] 25.4 µM | GI50 [16] 34.2 µM | GI50 [17] 31 µM | GI50 [18] > 100 µM | GI50 [19] 1.62 µM | GI50 [20] 33.7 µM | GI50 [21] 15.8 µM | GI50 [22] 55.4 µM | GI50 [23] 35.7 µM | GI50 [24] 34.7 µM | GI50 [25] 37.1 µM | GI50 [26] 28.6 µM | GI50 [27] 51.7 µM | GI50 [28] 40.9 µM | GI50 [29] 35.5 µM | GI50 [30] 38.2 µM | GI50 [31] 22.6 µM | GI50 [32] 26 µM | GI50 [33] 23.6 µM | GI50 [34] 46.6 µM | GI50 [35] 37.3 µM | GI50 [36] 61.8 µM | GI50 [37] 42.4 µM | GI50 [38] 22 µM | GI50 [39] 38.1 µM | GI50 [40] 52.8 µM | GI50 [41] 91.6 µM | GI50 [42] > 100 µM | GI50 [43] 20.1 µM | GI50 [44] 14.6 µM | GI50 [45] 65.7 µM | GI50 [46] 36.3 µM | GI50 [47] 49.4 µM | GI50 [48] 24.1 µM | GI50 [49] > 100 µM | GI50 [50] 3.88 µM | GI50 [51] 24.5 µM | GI50 [52] 54.7 µM | GI50 [53] 2.25 µM | GI50 [54] 37.7 µM | GI50 [55] 16.7 µM | GI50 [56] 14.8 µM
